Reference: PubChem BioAssay (NCI)
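Results reflect a 48-hour exposure of cells in 96-well plates to compound at five concentrations. GI50 = concentration required for 50% inhibition of growth. TGI is the concentration that stops growth completely.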

Tests used:
Assay in all cases: NCI tumour cell line growth inhibition, 48 h
786-0 renal = test system: 786-0 renal
A498 renal = test system: A498 renal
A549 NSCLC = test system: A549 NSCLC
ACHN renal = test system: ACHN renal
BT-549 breast = test system: BT-549 breast
CAKI-1 renal = test system: CAKI-1 renal
CCRF-CEM leukemia = test system: CCRF-CEM leukemia
COLO 205 colon = test system: COLO 205 colon
DU-145 prostate = test system: DU-145 prostate
EKVX NSCLC = test system: EKVX NSCLC
HCC-2998 colon = test system: HCC-2998 colon
HCT-116 colon = test system: HCT-116 colon
HCT-15 colon = test system: HCT-15 colon
HL-60(TB) leukemia = test system: HL-60(TB) leukemia
HOP-62 NSCLC = test system: HOP-62 NSCLC
HOP-92 NSCLC = test system: HOP-92 NSCLC
HS 578T breast = test system: HS 578T breast
HT29 colon = test system: HT29 colon
IGROV1 ovarian = test system: IGROV1 ovarian
K-562 leukemia = test system: K-562 leukemia
KM12 colon = test system: KM12 colon
LOX IMVI melanoma = test system: LOX IMVI melanoma
M14 melanoma = test system: M14 melanoma
MALME-3M melanoma = test system: MALME-3M melanoma
MCF7 breast = test system: MCF7 breast
MDA-MB-231 breast = test system: MDA-MB-231 breast
MDA-MB-435 = test system: MDA-MB-435
MOLT-4 leukemia = test system: MOLT-4 leukemia
NCI-H226 lung = test system: NCI-H226 lung
NCI-H23 lung = test system: NCI-H23 lung
NCI-H460 lung = test system: NCI-H460 lung
NCI-H522 lung = test system: NCI-H522 lung
NCI/ADR-RES ovarian = test system: NCI/ADR-RES ovarian
OVCAR-4 ovarian = test system: OVCAR-4 ovarian
OVCAR-5 ovarian = test system: OVCAR-5 ovarian
OVCAR-8 ovarian = test system: OVCAR-8 ovarian
PC-3 prostate = test system: PC-3 prostate
RPMI-8226 leukemia = test system: RPMI-8226 leukemia
RXF 393 renal = test system: RXF 393 renal
SF-268 CNS = test system: SF-268 CNS
SF-295 CNS = test system: SF-295 CNS
SF-539 CNS = test system: SF-539 CNS
SK-MEL-2 melanoma = test system: SK-MEL-2 melanoma
SK-MEL-28 melanoma = test system: SK-MEL-28 melanoma
SK-MEL-5 melanoma = test system: SK-MEL-5 melanoma
SK-OV-3 ovarian = test system: SK-OV-3 ovarian
SN12C renal = test system: SN12C renal
SNB-19 CNS = test system: SNB-19 CNS
SNB-75 CNS = test system: SNB-75 CNS
SR leukemia = test system: SR leukemia
SW-620 colon = test system: SW-620 colon
T-47D breast = test system: T-47D breast
TK-10 renal = test system: TK-10 renal
U251 CNS = test system: U251 CNS
UACC-257 melanoma = test system: UACC-257 melanoma
UACC-62 melanoma = test system: UACC-62 melanoma
UO-31 renal = test system: UO-31 renal

In the case of `CCCC(=O)NC(c1cccnc1)c1ccc2c(C)ccnc2c1O` (centres undefined), the GI50 (786-0 renal) is reported as 2080 nM, the TGI (786-0 renal) is reported as > 100000 nM and the GI50 (A498 renal) is reported as 2360 nM. The TGI (A498 renal) was 16800 nM, the GI50 (A549 NSCLC) was 2150 nM and the TGI (A549 NSCLC) was > 100000 nM. For the same compound, the GI50 (ACHN renal) was 651 nM, the TGI (ACHN renal) was > 100000 nM and the GI50 (BT-549 breast) was 3930 nM. For the same compound, the TGI (BT-549 breast) was > 100000 nM, the GI50 (CAKI-1 renal) was 1030 nM and the TGI (CAKI-1 renal) was > 100000 nM. The GI50 (CCRF-CEM leukemia) was 568 nM, the TGI (CCRF-CEM leukemia) was > 100000 nM and the GI50 (COLO 205 colon) was 1270 nM. The TGI (COLO 205 colon) was > 100000 nM, the GI50 (DU-145 prostate) was 1700 nM and the TGI (DU-145 prostate) was > 100000 nM. The GI50 (EKVX NSCLC) was 892 nM, the TGI (EKVX NSCLC) was 20200 nM and the GI50 (HCC-2998 colon) was 2680 nM. For the same compound, the TGI (HCC-2998 colon) was > 100000 nM, the GI50 (HCT-116 colon) was 538 nM and the TGI (HCT-116 colon) was > 100000 nM. The GI50 (HCT-15 colon) was 539 nM, the TGI (HCT-15 colon) was > 100000 nM and the GI50 (HL-60(TB) leukemia) was 591 nM. For the same compound, the TGI (HL-60(TB) leukemia) was 5850 nM, the GI50 (HOP-62 NSCLC) was 1500 nM and the TGI (HOP-62 NSCLC) was > 100000 nM. For the same compound, the GI50 (HOP-92 NSCLC) was 6100 nM, the TGI (HOP-92 NSCLC) was > 100000 nM and the GI50 (HS 578T breast) was 8720 nM. The TGI (HS 578T breast) was > 100000 nM, the GI50 (HT29 colon) was 2210 nM and the TGI (HT29 colon) was > 100000 nM. The GI50 (IGROV1 ovarian) was 1870 nM, the TGI (IGROV1 ovarian) was > 100000 nM and the GI50 (K-562 leukemia) was 851 nM. The TGI (K-562 leukemia) was > 100000 nM, the GI50 (KM12 colon) was 2280 nM and the TGI (KM12 colon) was > 100000 nM. It also gave a GI50 (LOX IMVI melanoma) of 697 nM, a TGI (LOX IMVI melanoma) of 11700 nM and a GI50 (M14 melanoma) of 1160 nM. The TGI (M14 melanoma) was > 100000 nM, the GI50 (MALME-3M melanoma) was 2180 nM and the TGI (MALME-3M melanoma) was > 100000 nM. The GI50 (MCF7 breast) was 1910 nM, the TGI (MCF7 breast) was > 100000 nM and the GI50 (MDA-MB-231 breast) was 2230 nM. The TGI (MDA-MB-231 breast) was > 100000 nM, the GI50 (MDA-MB-435) was 2890 nM and the TGI (MDA-MB-435) was > 100000 nM. For the same compound, the GI50 (MOLT-4 leukemia) was 549 nM, the TGI (MOLT-4 leukemia) was > 100000 nM and the GI50 (NCI-H226 lung) was 2750 nM. For the same compound, the TGI (NCI-H226 lung) was > 100000 nM, the GI50 (NCI-H23 lung) was 2540 nM and the TGI (NCI-H23 lung) was > 100000 nM. For the same compound, the GI50 (NCI-H460 lung) was 576 nM, the TGI (NCI-H460 lung) was > 100000 nM and the GI50 (NCI-H522 lung) was 2170 nM. For the same compound, the TGI (NCI-H522 lung) was > 100000 nM, the GI50 (NCI/ADR-RES ovarian) was 442 nM and the TGI (NCI/ADR-RES ovarian) was 77500 nM. For the same compound, the GI50 (OVCAR-4 ovarian) was 995 nM, the TGI (OVCAR-4 ovarian) was > 100000 nM and the GI50 (OVCAR-5 ovarian) was 2870 nM. For the same compound, the TGI (OVCAR-5 ovarian) was > 100000 nM, the GI50 (OVCAR-8 ovarian) was 1860 nM and the TGI (OVCAR-8 ovarian) was > 100000 nM. The GI50 (PC-3 prostate) was 2540 nM, the TGI (PC-3 prostate) was > 100000 nM and the GI50 (RPMI-8226 leukemia) was 1880 nM. The TGI (RPMI-8226 leukemia) was > 100000 nM, the GI50 (RXF 393 renal) was 2790 nM and the TGI (RXF 393 renal) was > 100000 nM. For the same compound, the GI50 (SF-268 CNS) was 1810 nM, the TGI (SF-268 CNS) was > 100000 nM and the GI50 (SF-295 CNS) was 930 nM. For the same compound, the TGI (SF-295 CNS) was > 100000 nM, the GI50 (SF-539 CNS) was 1740 nM and the TGI (SF-539 CNS) was > 100000 nM. For the same compound, the GI50 (SK-MEL-2 melanoma) was 7090 nM, the TGI (SK-MEL-2 melanoma) was > 100000 nM and the GI50 (SK-MEL-28 melanoma) was 2300 nM. The TGI (SK-MEL-28 melanoma) was > 100000 nM, the GI50 (SK-MEL-5 melanoma) was 1690 nM and the TGI (SK-MEL-5 melanoma) was 3650 nM. The GI50 (SK-OV-3 ovarian) was 2100 nM, the TGI (SK-OV-3 ovarian) was > 100000 nM and the GI50 (SN12C renal) was 2370 nM. The TGI (SN12C renal) was > 100000 nM, the GI50 (SNB-19 CNS) was 3420 nM and the TGI (SNB-19 CNS) was > 100000 nM. The GI50 (SNB-75 CNS) was 3130 nM, the TGI (SNB-75 CNS) was > 100000 nM and the GI50 (SR leukemia) was 472 nM. The TGI (SR leukemia) was > 100000 nM, the GI50 (SW-620 colon) was 1940 nM and the TGI (SW-620 colon) was > 100000 nM. For the same compound, the GI50 (T-47D breast) was 1290 nM, the TGI (T-47D breast) was > 100000 nM and the GI50 (TK-10 renal) was 3130 nM. The TGI (TK-10 renal) was > 100000 nM, the GI50 (U251 CNS) was 1600 nM and the TGI (U251 CNS) was > 100000 nM. For the same compound, the GI50 (UACC-257 melanoma) was 2460 nM, the TGI (UACC-257 melanoma) was > 100000 nM and the GI50 (UACC-62 melanoma) was 2110 nM. It also gave a TGI (UACC-62 melanoma) of 20400 nM, a GI50 (UO-31 renal) of 548 nM and a TGI (UO-31 renal) of 41300 nM.
